Here are results for 4 compounds from US20120310117A1, “METHOD FOR […] AND RELATED […]” (The McLean Hospital Corporation, priority 2009, published 2012).

Structures are written as SMILES.

For experiment [1] the following is noted: cited from earlier work.
The conditions of experiment [2]: 2.5 mg of Focalin has the same therapeutic benefit as 5.0 mg of Ritalin; cited from earlier work.
Experiment [3] relates to boys 9-12 years of age with ADHD combined subtype. Description: Infrared motion analysis of head marker movements during a 15-minute cognitive control task (Quotient Test), PRE and 120 minutes POST probe dose MPH. Format: in vivo, human. The method, then:
Data were analyzed from a study approved and monitored by the McLean Hospital Institutional Review Board […]. The ADHD sample consisted of 62 boys between 9-12 years of age who met Diagnostic and Statistical Manual of Mental Disorders, 4th edition (DSM-IV) (Diagnostic and statistical manual of mental disorders: DSM-IV.—4th ed., text revision. Washington, D.C: American Psychiatric Association; 2000) criteria for ADHD combined subtype. Subjects were recruited from the general population via newspaper advertisement for hyperactive boys who were currently or previously treated with MPH, as the protocol called from them to receive a moderately large probe dose of immediate release MPH. This was easier to justify in subjects known to tolerate MPH without untoward effects. Parental written consent and child verbal assent were obtained. […] Seventy-three boys went through the screening procedures, which included structured interviews for DSM-IV Axis I psychiatric diagnoses using K-SADS-E (Orvaschel H, Puig-Antich J. Schedule for Affective Disorder and Schizophrenia for School-Age Children, Epidemiologic Version, Fifth Revision. Fort Lauderdale, Fla.: Nova Southeastern University; 1994); and parent ratings on the Conners' Hyperactivity Index (Conners et al., J Abnorm Child Psychol. 26:257 (1998)) and Achenbach Child Behavior Checklist (CBCL) (Achenbach T. Integrative Guide to the 1991 CBCL/4-18, YSR, and TRF Profiles. Burlington, Vt.: University of Vermont, Department of Psychology; 1991). Children with ADHD could not have any current major mood disorder, psychosis, tic disorder, a major anxiety disorder, or mental retardation. Children with oppositional defiant disorder (ODD), or reported learning disorders, could participate. From this pool of subjects, 11 were excluded from further participation. […] One subject was disqualified for drug use, another was disqualified for current antidepressant treatment of night terrors, and one withdrew before the probe dose. […] In this sample, there were 19 boys with comorbid ODD, 2 with current dysthymia, 4 with learning disorders, and 3 with past major depression or past anxiety disorders. […] Sixty of these subjects were previously included in a study examining fluctuations in attentional state (Teicher et al., J Child Adolesc Psychopharmacol. 14:219 (2004)), and 48 were included in a study on pharmacokinetic-pharmacodynamic response to methylphenidate (Teicher et al., J Child Adolesc Psychopharmacol. 16:416 (2006)).
For comparison, we analyzed data from a representative non-clinical contrast group. This group consisted of 62 male students, randomly selected from a sample of 1168 subjects (6-14 years of age) tested at local public schools using teacher ratings and a computerized attention task with infrared motion analysis (Teicher et al., J Am Acad Child Adolesc Psychiatry 35:334 (1996); Quotient Test, BioBehavioral Diagnostic Company, Cambridge, Mass.). This large-scale database development study was approved by the McLean Hospital IRB and the school administrators. Parents provided written consent and children gave verbal assent to participate. Subjects selected from this sample were male, and matched 1:1 with the ADHD subjects by age to the nearest month (11.0±1.0 years). The selection criteria applied for this analysis was that they needed to have Conners' Teacher Ratings (Conners C K. American Journal of Psychiatry 126:884 (1969)) that were within ±1 SD of the mean of peers their own age and gender (i.e., T score<60), to help exclude subjects with potential ADHD.
Children with ADHD were tested prior to (PRE) and 120-minutes following (POST) a probe dose of 0.4 mg/kg MPH. Contrast subjects only received a single Quotient Test, which was specifically designed to provide objective measures of hyperactivity, inattention and impulsivity (Teicher et al., J Am Acad Child Adolesc Psychiatry 35:334 (1996)). […]

The test system of experiment [4] is dopamine reuptake. The conditions noted are these: cited from earlier work.

For `COC(=O)[C@H](c1ccccc1)[C@H]1CCCCN1` [Focalin], in experiment [1] (after administration), the “onset of action, in words” value is “immediately”. Also, the “potency relative to methylphenidate” value in experiment [2] is reported as “twice as potent”.

In the case of `CNCC[C@@H](Oc1ccccc1C)c1ccccc1` [Atomoxetine], the “coverage of symptoms associated with ADHD” value in experiment [1] (clinical trials in adults and children) is 24 h.

As for `COC(=O)C(c1ccccc1)C1CCCCN1` (stereo not drawn) [MPH, methylphenidate], in experiment [3] (ADHD POST vs contrast), the “MLE in ADHD after MPH relative to contrast subjects” value is recorded as 4.8 fold; the “ROC Area for MLE, ADHD POST vs contrast subjects” value is on record as 0.995; the “ROC Area for β, ADHD POST vs contrast subjects” value worked out at 0.850; the “effect size d' for MLE, ADHD after MPH vs contrast subjects” value turned out to be 3.1. In experiment [3] (MLE vs surrogate data, fell from 84% PRE, 41/62 POST), the “percentage of ADHD subjects with evidence for a deterministic chaotic component to head movements after MPH” value was 66%. The “baseline and spike amplitudes and spike numbers relative to contrast group” value in experiment [3] (Max-Pass, ADHD POST vs contrast controls) was “suppressed to at or below contrast group levels”. Besides, the “reduction of spike amplitude” value in experiment [3] (Max-Pass, POST (120 min after 0.4 mg/kg MPH) vs PRE) is on record as 52%. Besides, the “reduction of baseline amplitude” value in experiment [3] (Max-Pass, POST (120 min after 0.4 mg/kg MPH) vs PRE, 62 ADHD boys) is 63%. In addition, the “reduction of number of spikes” value in experiment [3] (Max-Pass, POST vs PRE) was determined as 35%. Besides, the “effect size of MPH on ApEn, β and MLE” value in experiment [3] (POST vs PRE) was 1.0-1.2. Also, the “within subject reduction in composite inhibitory measures” value in experiment [3] (baseline and spike amplitude, POST vs PRE) was 58.3%±39.9%. In experiment [3] (correlation dimension method with surrogate data, 56/62 PRE), the “ADHD subjects POST with evidence for a deterministic component to head positions” value is 62/62. In experiment [3] (first 5 minutes of the test), the “inhibitory measures POST MPH vs controls” value was “did not differ from controls” and the “non-linear measures POST MPH vs controls” value is “remained distinctly different than controls”. In experiment [3] (post-medication ADHD subjects, N 62, PRE AVG 100897.28, CTRL AVG 42396.0034), the “Spike area (SpArea) PST AVG” value worked out at 36631.5066. Besides, the “baseline and spike amplitudes relative to contrast group” value in experiment [3] (spike detection by cluster analysis, ADHD POST vs contrast controls) is “at or below contrast group levels”. Besides, the “reduction in composite measures of positional stability” value in experiment [3] (β, MLE, POST vs PRE) was 16.6%±19.2%.

Take `CC(NC(C)(C)C)C(=O)c1cccc(Cl)c1` (stereo not drawn) [Bupropion]: the “potency as inhibitor of dopamine reuptake relative to norepinephrine reuptake” value in experiment [4] is reported as “about twice as potent”.
